Patent US20060263238A1, “Decontamination of biological microbes using quaternary ammonium surfactants at elevated temperatures” (priority 2005, published 2006)

Assays:
B. globigii spores [1] = assay: Optional wash assay (surfactant removed by centrifuging and washing spores before plating); assay type: cell-based, Bacillus globigii; details: between pH5 and pH7 at 70° C.; for reduction of spore decontamination (wash assay): data not shown
Experimental: (§1) Bacillus spores were suspended in the appropriate solvent at a concentration of 2 mg spores/ml (approximately 2×10^8 spores/ml). Starting volume of 1.125 ml of spores at 2 mg/ml. 3 or 4 spore aliquots of 50 μl per aliquot were removed. These aliquots were serially diluted in 1×PBS and plated on LB or TSA agar plates. This is a control step that gave the spore titer or colony-forming units (CFUs) at Time=0 minutes (T0). The appropriate decontamination solution (2× concentration) was aliquoted into each of 3 or 4 Eppendorf tubes with 200 ul per tube. Then 200 ul of spores were added and mixed to give a final concentration of 1× decontamination solution and 1 mg spores/ml. The spores in decontamination solution were then mixed and incubated for specific time periods and temperatures. A typical incubation was in a room temperature (25° C.) water bath for 30 (or 60) minutes. There was no agitation during the incubation period in order to mimic real world situations. Aliquots of spores were removed after 30 (or 60) minutes. The aliquots (3 or 4 replicates) were serially diluted in 1×PBS and plated on LB or TSA agar plates. This gave a CFU at Time=30 minutes (T30), which is the titer of live spores after the decontamination test. After removing the aliquots at the 30-minute time point, test (or control) samples were then immediately incubated in a 70° C. water bath for another 30 minutes. The samples were then serially diluted and plated on to LB or TSA agar plates to determine the titer after the 70° C. incubation. The entire dilution series from 0.1 through 0.000001 dilutions were plated. An optional wash assay was employed to confirm that the surfactant was killing spores rather than behaving as a bacterostatic agent. The wash assay included centrifuging and washing spores after decontamination. 100 ul of spores (after decontamination) were added to 200 ul of water and centrifuged at 10,000×g for one minute at room temperature. The supernatant was removed and saved. 10% of the supernatant volume was plated and titered as a wash control, to determine if live spores were being removed in the supernatant. Spore pellets were suspended in 1 ml of water and then pelleted at 10,000×g for one minute at room temperature. The supernatant was removed and saved. Spore pellets were washed again with 1 ml of water. Then spore pellets were suspended, serially diluted and plated. This removed the surfactant prior to plating and confirmed results that were bactericidal rather than bacterostatic.
An optional wash assay was employed to verify the results (data not shown). […]

B. globigii spores [2] = assay: Spore decontamination followed immediately by dilution and plating (CFU titer); assay type: cell-based, Bacillus globigii; details: for reduction of spores: 1% surfactant in water, >10^7 spores/ml, apparently independent of pH; for sporicidal (bacterial) activity: in the presence of moderate applied heat
Experimental: In the examples, below, three representative quaternary ammonium surfactants were tested for decontamination of Bacillus spores. The three exemplified quaternary ammonium surfactants are hexadecyltrimethylammonium chloride, dicocodimethylammonium chloride, and alkyldimethylbenzylammonium chloride. All three quaternary ammonium surfactants were dissolved in water and tested over a pH range. Testing occurred with and without applied heat. All experiments were performed with at least 3-4 replicates with many experiments reproduced numerous times.
as §1

[3] = 30 minutes at 25° C. (room temperature)

Compound | spores alive out of the original 10-100 million spores (wash assay) (B. globigii spores [1]) | reduction of spore decontamination (wash assay) (B. globigii spores [1]) | reduction of spores (B. globigii spores [2]; [3]) | reduction of spores (B. globigii spores [2]; 30 minutes at 70° C., complete) | sporicidal (bacterial) activity (B. globigii spores [2])
CCCCCCCCCCCCCCCC[N+](C)(C)C.[Cl-] [hexadecyltrimethylammonium chloride] | less than 10 thousand | over 4 orders-of-magnitude | approximately 1 order-of-magnitude | greater than 7 orders-of-magnitude | strong sporicidal (bacterial) activity
alkyldimethylbenzylammonium chloride | – | – | approximately 1 order-of-magnitude | greater than 7 orders-of-magnitude | strong sporicidal (bacterial) activity
dicocodimethylammonium chloride | less than 10 thousand | over 4 orders-of-magnitude | approximately 1 order-of-magnitude | greater than 7 orders-of-magnitude | strong sporicidal (bacterial) activity
